From paper PMC8493129, “Design and Synthesis of New Quinoxaline Derivatives as Potential Histone Deacetylase Inhibitors Targeting Hepatocellular Carcinoma: In Silico, In Vitro, and SAR Studies” (Frontiers in Chemistry, 2021)
“And” between values parts separate entries of the source, which are not always exact repeats. Equal entries are not always repeated.

Experiments:
[1] = tested on: Bax; test: Apoptotic marker level (Bax) in HepG-2 cells; format: cell-based, human; details: control 24.37 pg/ml
Procedure: (§1) The method was performed in detail as previously explained ([Eliaa et al., 2020]).

[2] = tested on: HepG-2 cells; test: Cell cycle analysis by flow cytometry; format: cell-based, human
Procedure: The most compound 6 c incorporating 4-Cl benzylidene side chain was further evaluated through cell cycle analysis in HepG-2 cell line. Such a test was carried out to detect the exact phase at which cell cycle arrest takes place.

[3] = target: HDAC1 (Homo sapiens, UniProt Q13547); test: Histone deacetylase inhibition, homogeneous fluorescence release assay
[4] = target: HDAC4 (Homo sapiens, UniProt P56524); test: as above
[5] = tested on: Bcl-2; test: Anti-apoptotic marker level (Bcl-2) in HepG-2 cells; format: cell-based, human; details: control 5.048 pg/ml
Procedure: as §1

[6] = target: T1, HDAC6 (Homo sapiens, UniProt Q9UBN7); test: Histone deacetylase inhibition, homogeneous fluorescence release assay
T1 sequence (Q9UBN7 1-1215): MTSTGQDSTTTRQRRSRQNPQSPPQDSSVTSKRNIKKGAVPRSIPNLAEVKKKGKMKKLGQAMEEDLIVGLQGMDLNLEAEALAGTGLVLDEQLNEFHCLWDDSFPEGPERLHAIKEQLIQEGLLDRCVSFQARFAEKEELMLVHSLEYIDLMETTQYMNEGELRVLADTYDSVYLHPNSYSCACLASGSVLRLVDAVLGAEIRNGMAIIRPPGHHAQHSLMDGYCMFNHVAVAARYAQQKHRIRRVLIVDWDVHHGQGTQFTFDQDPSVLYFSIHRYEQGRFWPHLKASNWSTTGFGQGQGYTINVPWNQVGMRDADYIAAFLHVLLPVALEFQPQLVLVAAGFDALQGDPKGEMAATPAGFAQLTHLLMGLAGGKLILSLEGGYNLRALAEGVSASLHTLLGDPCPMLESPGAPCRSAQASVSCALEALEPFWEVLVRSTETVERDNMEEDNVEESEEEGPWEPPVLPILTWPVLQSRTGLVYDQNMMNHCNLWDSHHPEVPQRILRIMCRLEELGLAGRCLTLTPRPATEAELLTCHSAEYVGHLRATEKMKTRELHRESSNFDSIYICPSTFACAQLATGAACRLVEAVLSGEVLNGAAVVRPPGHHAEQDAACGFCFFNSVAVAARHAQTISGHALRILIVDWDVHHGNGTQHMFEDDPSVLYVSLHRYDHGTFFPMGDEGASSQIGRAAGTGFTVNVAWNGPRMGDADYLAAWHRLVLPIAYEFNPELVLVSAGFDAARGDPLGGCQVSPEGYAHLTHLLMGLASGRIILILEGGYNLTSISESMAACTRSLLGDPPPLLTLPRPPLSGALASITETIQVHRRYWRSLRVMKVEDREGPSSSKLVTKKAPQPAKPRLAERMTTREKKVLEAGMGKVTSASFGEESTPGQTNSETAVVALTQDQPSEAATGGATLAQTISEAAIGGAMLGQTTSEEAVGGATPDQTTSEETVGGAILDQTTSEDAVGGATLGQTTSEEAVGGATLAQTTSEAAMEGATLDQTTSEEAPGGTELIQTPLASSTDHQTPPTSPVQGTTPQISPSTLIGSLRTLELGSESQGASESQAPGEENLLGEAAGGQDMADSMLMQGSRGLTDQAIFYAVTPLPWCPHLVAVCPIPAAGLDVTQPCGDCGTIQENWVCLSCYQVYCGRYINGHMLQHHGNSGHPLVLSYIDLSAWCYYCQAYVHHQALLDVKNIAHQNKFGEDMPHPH

[7] = tested on: HepG-2 cells; test: Annexin V-FITC apoptosis assay; format: cell-based, human; details: HepG-2, 1.53 µM
Procedure: It is well-known that cell death may be due to programmed apoptosis or uncontrolled necrosis. Annexin V-based flow cytometry assay as a helpful strategy to determine the exact cause of death was carried out. […] This confirms that the cytotoxic activity of compound 6 c is due to programmed apoptosis, and not to nonspecific necrosis.
The previous compound was analyzed by FACS as we previously described ([Al-Rashood et al., 2020]; [Eliaa et al., 2020]; [Eldehna et al., 2021]).

[8] = tested on: HuH-7 liver cancer cell line; test: Anti-proliferative activity (MTT / SRB assay), HuH-7; format: cell-based, human; details: for IC50: Homo sapiens, mean of three separate experiments
Procedure: (§2) The new quinoxaline derivatives of the five series: 6, 7, 8, 9, and 10 were evaluated for their potential anti-proliferative activity against two liver cancer cell lines (HepG-2 and HuH-7) obtained from the American Type Culture Collection.

[9] = tested on: HepG-2 liver cancer cell line; test: Anti-proliferative activity (MTT / SRB assay), HepG-2; format: cell-based, human; details: for IC50: Homo sapiens, HepG2, mean of three separate experiments
Procedure: as §2

[10] = tested on: HepG-2 and HuH-7 liver cancer cell lines; test: Anti-proliferative activity, statements covering both cell lines; format: cell-based, human; details: class by IC50 on HepG-2 and HuH-7
Procedure: as §2

HDAC4, sequence (P56524 whole entry): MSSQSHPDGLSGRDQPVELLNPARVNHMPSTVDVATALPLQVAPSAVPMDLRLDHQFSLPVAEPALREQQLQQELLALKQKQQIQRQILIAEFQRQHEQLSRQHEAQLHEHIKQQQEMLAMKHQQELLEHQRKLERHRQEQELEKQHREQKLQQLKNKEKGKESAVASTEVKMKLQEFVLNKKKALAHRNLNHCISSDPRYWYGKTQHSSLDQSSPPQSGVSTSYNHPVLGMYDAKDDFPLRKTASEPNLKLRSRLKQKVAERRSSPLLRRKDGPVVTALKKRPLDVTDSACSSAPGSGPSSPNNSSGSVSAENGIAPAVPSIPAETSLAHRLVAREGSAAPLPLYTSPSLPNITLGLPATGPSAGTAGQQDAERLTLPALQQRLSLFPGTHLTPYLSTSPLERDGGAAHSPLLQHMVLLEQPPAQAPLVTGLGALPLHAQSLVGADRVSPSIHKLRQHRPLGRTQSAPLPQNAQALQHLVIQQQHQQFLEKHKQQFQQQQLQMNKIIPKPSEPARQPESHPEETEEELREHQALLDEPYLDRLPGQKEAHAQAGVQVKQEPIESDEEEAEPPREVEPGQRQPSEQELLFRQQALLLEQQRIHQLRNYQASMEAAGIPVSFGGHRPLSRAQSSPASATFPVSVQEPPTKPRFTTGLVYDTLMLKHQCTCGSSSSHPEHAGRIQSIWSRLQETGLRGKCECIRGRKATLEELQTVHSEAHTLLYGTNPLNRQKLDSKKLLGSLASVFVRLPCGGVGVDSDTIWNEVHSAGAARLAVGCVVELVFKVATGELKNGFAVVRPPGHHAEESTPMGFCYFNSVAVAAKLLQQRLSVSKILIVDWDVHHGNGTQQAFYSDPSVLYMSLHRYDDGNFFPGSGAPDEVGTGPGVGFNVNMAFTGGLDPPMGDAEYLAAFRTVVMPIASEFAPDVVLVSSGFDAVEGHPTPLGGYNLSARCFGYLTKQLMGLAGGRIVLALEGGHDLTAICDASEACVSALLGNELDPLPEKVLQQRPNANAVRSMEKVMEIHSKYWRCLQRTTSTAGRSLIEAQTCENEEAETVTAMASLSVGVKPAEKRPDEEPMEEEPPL
HDAC1, sequence (Q13547 whole entry): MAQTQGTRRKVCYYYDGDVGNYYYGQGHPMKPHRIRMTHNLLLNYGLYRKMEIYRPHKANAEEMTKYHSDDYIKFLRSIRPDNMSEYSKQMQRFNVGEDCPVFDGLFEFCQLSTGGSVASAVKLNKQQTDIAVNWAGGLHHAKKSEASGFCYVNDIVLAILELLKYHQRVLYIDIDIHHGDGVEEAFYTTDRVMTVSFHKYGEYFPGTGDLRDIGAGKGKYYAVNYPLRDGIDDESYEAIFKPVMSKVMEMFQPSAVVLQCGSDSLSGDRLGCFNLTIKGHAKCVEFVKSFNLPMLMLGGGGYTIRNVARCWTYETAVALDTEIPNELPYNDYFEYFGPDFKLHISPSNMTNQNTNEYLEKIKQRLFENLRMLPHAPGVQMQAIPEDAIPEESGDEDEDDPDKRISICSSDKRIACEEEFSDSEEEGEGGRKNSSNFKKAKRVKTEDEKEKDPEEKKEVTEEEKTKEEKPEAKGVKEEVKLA

## Clc1ccc(C=NNc2nc3ccccc3nc2Cl)cc1 [Compound 6 c, 2-Chloro-3-(2-(4-chlorobenzylidene)hydrazinyl)quinoxaline]
[1]
  Bax: 274.3 pg/mL
[2]; HepG-2, 1.53 µM
  decline in the cell population at G0/G1 phase compared to control: 1.23 fold
  decline in the cell population at S phase compared to control: 1.18 fold
  increase in the population of cells at the G2/M phase compared to control: 1.76 fold
[2]; HepG-2 cells treated at 1.53 µM, control 18.67%
  %G2/M: 32.93%
[2]; HepG-2 cells treated at 1.53 µM, control 35.93%
  %S: 30.32%
[2]; HepG-2 cells treated at 1.53 µM, control 45.40%
  %G0-G1: 36.75%
[3]
  IC50: 1.76 µM
[4]
  IC50: 1.39 µM
[5]
  Bcl-2: 1.27 pg/mL and 1.278 pg/mL
[6]
  IC50: 3.46 µM
[7]
  increase in apoptosis percentage compared to the control, early phase: 9.98 fold
  increase in apoptosis percentage compared to the control, late phase: 10.81 fold
[7]; control 0.53%
  AnxV-FITC apoptotic cells percentage, late apoptosis: 5.73%
[7]; control 0.62%
  AnxV-FITC apoptotic cells percentage, early apoptosis: 6.19%
[8]
  IC50: 3.06 µM
[9]; HepG-2
  IC50: 1.53 µM

## CC(=NNc1nc2ccccc2nc1Cl)c1ccccc1O [Compound 7 b, 2-(1-(2-(3-Chloroquinoxalin-2-yl)hydrazono)ethyl)phenol]
[1]
  Bax: 217.9 pg/mL
[3]
  IC50: 2.67 µM
[4]
  IC50: 2.51 µM
[5]
  Bcl-2: 2.371 pg/mL
[6]
  IC50: 5.24 µM
[10]
  cytotoxic (anti-proliferative) activity class: very strong (1–10 (very strong))
[8]
  IC50: 6.19 µM
[9]; HepG-2
  IC50: 4.03 µM

## Oc1ccc2ccccc2c1C=NNc1nc2ccccc2nc1Cl [Compound 8, 1-((2-(3-Chloroquinoxalin-2-yl)hydrazono)methyl)naphthalen-2-ol]
[1]
  Bax: 233.6 pg/mL
[3]
  IC50: 1.72 µM
[4]
  IC50: 2.09 µM
[5]
  Bcl-2: 1.839 pg/mL
[6]
  IC50: 4.37 µM
[10]
  cytotoxic (anti-proliferative) activity class: very strong (1–10 (very strong))
[8]
  IC50: 6.14 µM
[8]; ratio of IC50 values
  fold increase in activity versus corresponding member 11, HuH-7: 3.30 fold
[9]; HepG-2
  IC50: 3.88 µM
[9]; ratio of IC50 values, HepG-2
  fold increase in activity versus corresponding member 11, HepG-2: 4.76 fold
[9]; ratio of IC50 values, stated for the two cell lines, figure fits HepG-2
  fold more active than compound 9: 2.98 fold

## COc1nc2ccccc2nc1N/N=C1/C(=O)Nc2ccccc21 [Compound 12]
[1]
  Bax: 257.9 pg/mL
[3]
  IC50: 2.01 µM
[4]
  IC50: 1.72 µM
[5]
  Bcl-2: 1.571 pg/mL
[6]
  IC50: 3.62 µM
[10]
  cytotoxic (anti-proliferative) activity class: very strong (1–10 (very strong))
[8]
  IC50: 3.08 µM
[8]; ratio of IC50 values
  fold increase in activity versus corresponding member 9, HuH-7: 5.33 fold
[9]; HepG-2
  IC50: 1.99 µM
[9]; ratio of IC50 values, HepG-2
  fold increase in activity versus corresponding member 9, HepG-2: 5.81 fold
